Results as given in patent US8883836B2, “Solid forms of bendamustine hydrochloride” (Cephalon, Inc., priority 2008, dated 2014).

Tests used:
[1] = Gravimetric Vapor Sorption (GVS); format: physicochemical; settings: for solid form by XRPD re-analysis after GVS humidity cycles: reanalysis under ambient conditions, hydrochloride
Procedure: Gravimetric Vapor Sorption (GVS)
Sorption isotherms were obtained using a Hiden IGASorp moisture sorption analyser, controlled by CFRSorp software. The sample temperature was maintained at 25° C. by a Huber recirculating water bath. The humidity was controlled by mixing streams of dry and wet nitrogen, with a total flow rate of 250 ml·min-1. The relative humidity was measured by a calibrated Vaisala RH probe (dynamic range of 0-95% RH), located near the sample. The weight change, (mass relaxation) of the sample as a function of % RH was constantly monitored by themicrobalance (accuracy ±0.001 mg). Typically 1-3 mg of sample was placed in a tared mesh stainless steel basket under ambient conditions. The sample was loaded and unloaded at 40% RH and 25° C. (typical room conditions). A moisture sorption isotherm was performed as outlined below (2 scans giving 1 complete cycle). The standard isotherm was performed at 25° C. at 10% RH intervals over a 0-90% RH range.
The software uses a least squares minimization procedure together with a model of the mass relaxation, to predict an asymptotic value. The measured mass relaxation value must be within 5% of that predicted by the software before the next % RH value is selected. The minimum equilibration time was set to 1 hour and the maximum to 4 hours.

[2] = Storage of solid forms under temperature/humidity or ambient conditions, XRPD re-analysis; format: physicochemical; settings: for change on storage: 24 hours under ambient conditions
[3] = Maturation Experiment (slurry of Form 1 in solvents, XRPD); format: physicochemical; settings: slurry 48 hours, 4 hour periods at 50 C and ambient
Procedure: Approximately 10 mg of Form 1 bendamustine hydrochloride was slurried in the solvents list in Table 3. The slurries were shaken for 48 hours with alternating 4 hour periods at 50 C and ambient temperature. Any solid material was then isolated by filtration and analyzed by XRPD. Solutions were allowed to evaporate.

[4] = Log P Determination (potentiometric titration, octanol:ISA water); format: physicochemical
Source text: Data were collected by potentiometric titration on a Sirius GlpKa instrument using three ratios of octanol:ionic-strength adjusted (ISA) water to generate Log P, Log Pion, and Log D values. The data were refined using Refinement Pro software v1.0. Prediction of Log P values was made using ACD v9 and Syracuse KOWWIN v1.67 software.

[5] = Thermodynamic Aqueous Solubility by HPLC; format: physicochemical
Procedure: Thermodynamic Aqueous Solubility by HPLC
Aqueous solubility was determined by suspending sufficient compound in 0.25 ml of water to give a maximum final concentration of ≧10 mg·ml^−1 of the parent free-form of the compound. The suspension was equilibrated at 25° C. for 24 hours (unless otherwise stated) after which the pH was measured. The suspension was then filtered through a glass fibre C filter into a 96 well plate. The filtrate was then diluted by a factor of 100 times. Quantitation was by HPLC with reference to a standard solution of approximately 0.1 mg·ml-1 in DMSO. Different volumes of the standard, diluted and undiluted sample solutions were injected. The solubility was calculated using the peak areas determined by integration of the peak found at the same retention time as the principal peak in the standard injection.

[6] = Light Stability (Suntest Light Box); format: physicochemical; settings: for change in crystallinity and purity during light stress test: 25° C.; for Purity (%): HPLC
Procedure: Light Stability of Bendamustine Hydrochloride
Samples of Form 1 and Form 2 of Bendamustine Hydrochloride were stressed in a Suntest Light Box with a light intensity of 250 watts/m2 for 1 week with the black body temperature set to 25° C. A blank of each sample, wrapped in foil for protection, was also included in the experiment. After the experiment, samples were analyzed by XRPD and the purity was determined by HPLC.

[7] = Preparation of solutions: solubility of Form 1 in solvents; settings: for Volume Added: 50 mg Form 1, aliquots with heating to 50° C. until clear solution
Procedure: Preparation of Solutions of Bendamustine Hydrochloride
50 mg of bendamustine hydrochloride Form 1 was weighed into a screw-top vial. Solvent was added in aliquots (with heating to 50° C.) until a clear solution was obtained.

[8] = Stability of Forms 1 and 2 (temperature/humidity storage, XRPD); format: physicochemical; settings: for purity after storage: 4° C./87% RH (5) and 60° C./75% RH (13) for 6 weeks; for kinetic stability on storage: 6 weeks at 4° C./34 to 76% RH, 25° C./43 to 75% RH and 60° C./11 to 75% RH
Procedure: Stability of Forms 1 and 2 of Bendamustine Hydrochloride
10 mg of bendamustine hydrochloride Form 1 (A), bendamustine hydrochloride Form 2 (B), and a 1:1 mixture of Forms 1 and 2 (C) were stored under the conditions listed in Table 7. Samples were analyzed by XRPD at 1 day, 2 week, and 6 week time points. […] The rate of this conversion appears to increase with temperature. The purity of Forms 1 and 2 after storage at 4° C./87% RH (5) and 60° C./75% RH (13) for 6 weeks was measured.

[9] = pKa Determination (Sirius GlpKa, UV); format: physicochemical; settings: by UV in aqueous conditions, 25° C.
Procedure: pKa Determination and Prediction
Data were collected on a Sirius GlpKa instrument with a D-PAS attachment. Measurements were made at 25° C. in aqueous solution by UV. The compound was initially dissolved in DMSO at 5 mg/ml of which 50 μl (0.25 mg) was used for the titration from pH 1.3 to 9.0. The titration media was ionic-strength adjusted (ISA) with 0.15 M KCl (aq). The data were refined using Refinement Pro software v1.0. Prediction of pKa values was made using ACD pKa prediction software v9.

[10] = 1 week at 40° C./75% RH, hydrochloride
[11] = 250 watts/m2, 1 week, hydrochloride
[12] = blank wrapped in foil, 1 week in light box
[13] = light stressed, 250 watts/m2, 1 week, hydrochloride

Compound: Cl.Cn1c(CCCC(=O)O)nc2cc(N(CCCl)CCCl)ccc21 [Amorphous bendamustine hydrochloride, bendamustine hydrochloride]
- solid form by XRPD re-analysis after GVS humidity cycles [1]: converted to Form 2
- change on storage (XRPD) [2, 10]: partial crystallization occurred
- change on storage ([2]; hydrochloride): became gummy
- hygroscopicity ([2]; inferred from 24 hours under ambient conditions): hygroscopic

Compound: Cl.Cn1c(CCCC(=O)O)nc2cc(N(CCCl)CCCl)ccc21 [Form 1, bendamustine hydrochloride]
- XRPD Analysis after maturation ([3]; Acetone): Form 1
- XRPD Analysis after maturation ([3]; Acetonitrile): Form 1
- XRPD Analysis after maturation ([3]; Anisole): Form 1
- XRPD Analysis after maturation ([3]; DCM): Form 1
- XRPD Analysis after maturation ([3]; DIPE): Form 1
- XRPD Analysis after maturation ([3]; Diethyl ether): Form 1
- XRPD Analysis after maturation ([3]; Dioxane): Form 1
- XRPD Analysis after maturation ([3]; Ethanol): Form 1
- XRPD Analysis after maturation ([3]; Ethyl acetate): Form 1
- XRPD Analysis after maturation ([3]; Heptane): Form 1
- XRPD Analysis after maturation ([3]; IPA): Form 1
- XRPD Analysis after maturation ([3]; Isopropyl acetate): Form 1
- XRPD Analysis after maturation ([3]; MIBK): Form 1
- XRPD Analysis after maturation ([3]; Methyl acetate): Form 1
- XRPD Analysis after maturation ([3]; Nitromethane): Form 1
- XRPD Analysis after maturation ([3]; TBME): Form 1
- XRPD Analysis after maturation ([3]; THF): Form 1
- XRPD Analysis after maturation ([3]; Toluene): Form 1
- XRPD Analysis after maturation ([3]; Water): degradant
- hygroscopicity ([1]; GVS, 0 to 90% RH): low hygroscopicity
- weight increase (hygroscopicity) ([1]; between 0 and 90% relative humidity (RH)): 0.7%
- solid form by XRPD re-analysis after GVS humidity cycles [1]: did not lead to a significant change in XRPD pattern
- LogP ([4]; octanol:ISA water): 1.10
- LogD ([4]; pH7.4): 0.68
- solution pH ([5]; saturated aqueous solution of the solubility experiment): 2.16
- degradation of sample in aqueous solubility experiment ([5]; water): significant degradation occurred
- aqueous solubility ([5]; water, 25° C., 24 hours, significant degradation occurred): 4.5 mg/mL
- change in crystallinity and purity during light stress test [6, 11]: only a slight decrease in purity
- stability to degradation in light ([6]; as compared to Form 2): more stable to degradation in light
- XRPD [6, 12]: No change
- Purity (%) ([6]; blank wrapped in foil, 1 week in light box, listed as Form 1 blank, hydrochloride): 97.3%
- Purity (%) [6, 13]: 95.9%
- XRPD [6, 13]: No change (sample brown in colour)
- Solution Obtained? ([7]; Acetic acid, 50 mg in 1 ml): Yes (50° C.)
- Volume Added ([7]; Acetic acid): 1000 µL
- Solution Obtained? ([7]; DMA, 50 mg in 500 μl): Yes (50° C.)
- Volume Added ([7]; DMA): 500 µL
- Solution Obtained? ([7]; DMF, 50 mg in 500 μl): Yes (50° C.)
- Volume Added ([7]; DMF): 500 µL
- Solution Obtained? ([7]; DMSO, 50 mg in 100 μl): Yes (50° C.)
- Volume Added ([7]; DMSO): 100 µL
- Solution Obtained? ([7]; Ethanol, 50 mg in 1 ml): Yes (50° C.)
- Volume Added ([7]; Ethanol): 1000 µL
- Solution Obtained? ([7]; Formamide, 50 mg in 1 ml): Yes (50° C.)
- Volume Added ([7]; Formamide): 1000 µL
- Solution Obtained? ([7]; Methanol, 50 mg in 100 μl): Yes (50° C.)
- Volume Added ([7]; Methanol): 100 µL
- purity after storage [8]: No large purity decreases
- kinetic stability on storage [8]: kinetically stable
- form conversion on storage at high humidity ([8]; 60° C./95% RH, 25° C. 94% RH and possibly 4° C./88% RH for 6, 6 and 2 weeks respectively): conversion of Form 1 to 2
- form conversion under high humidity conditions ([8]; ~90% RH, rate appears to increase with temperature): conversion of Form 1 of bendamustine hydrochloride to Form 2 was observed
- pKa (Acid) [9]: 4.17
- change on storage (XRPD) [2, 10]: no significant changes
- change on storage (XRPD) ([2]; 2 months at 25° C./94% RH): converted to a hydrate of bendamustine hydrochloride (Form 2)
- change on storage (XRPD) ([2]; 3 weeks at 40° C./11% RH): no significant changes
- change on storage (XRPD) ([2]; one month at 25° C./94% RH): in the process of converting to Form 2

Compound: Cl.Cn1c(CCCC(=O)O)nc2cc(N(CCCl)CCCl)ccc21 [Form 2, bendamustine hydrochloride]
- uptake during GVS analysis ([1]; between 10 and 15% RH, equating to 1 mole of water): 4%
- solid form by XRPD re-analysis after GVS humidity cycles [1]: partial conversion occurred
- change in crystallinity and purity during light stress test [6, 11]: significant decrease in both crystallinity and purity
- XRPD [6, 12]: No change
- Purity (%) ([6]; blank wrapped in foil, 1 week in light box, listed as Form 2 blank, hydrochloride): 95.6%
- Purity (%) [6, 13]: 68.7%
- XRPD [6, 13]: Less crystalline (sample brown in colour)
- purity after storage [8]: No large purity decreases
- kinetic stability on storage [8]: kinetically stable
- conversion of Form 2 to Form 1 on storage ([8]; after 6 weeks): No conversion of Form 2 to Form 1
- change on storage (XRPD) ([2]; one month at 40° C./11% RH): became less crystalline
- change on storage (XRPD) ([2]; one month at 40° C./75% RH): no significant changes

Compound: Cl.Cn1c(CCCC(=O)O)nc2cc(N(CCCl)CCCl)ccc21 [Form 3, bendamustine hydrochloride]
- change on storage (XRPD) ([2]; 1 month under ambient conditions): No significant changes
- change on storage (XRPD) [2, 10]: conversion to Form 2

Compound: Cl.Cn1c(CCCC(=O)O)nc2cc(N(CCCl)CCCl)ccc21 [Form 4, bendamustine hydrochloride]
- change on storage ([2]; hydrochloride): converted to Form 2
